Among the test systems are A498 renal; CAKI-1 renal; HS 578T breast; HT29 colon; K-562 leukemia; MDA-MB-435; NCI-H522 lung; OVCAR-8 ovarian; SF-268 CNS; U251 CNS.
What all share (test): NCI tumour cell line growth inhibition, 48 h

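Briefly, cells in 96-well plates were exposed to five compound concentrations for 48 h, and endpoints were estimated by linear interpolation. GI50 = concentration required for 50% inhibition of growth. The concentration for full growth arrest is given as TGI.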

As to `COC(=O)C(C)NP(=O)(OCc1ccc(Cn2cnc3c(=O)[nH]c(N)nc32)cc1)Oc1ccccc1` (centres undefined), the GI50 in the assay on A498 renal, in the assay on CAKI-1 renal, with HS 578T breast, with HT29 colon, in the assay on K-562 leukemia and with MDA-MB-435 was above 100 µM throughout. For the same compound, the GI50 in the assay on NCI-H522 lung, with OVCAR-8 ovarian, in the assay on SF-268 CNS and in the assay with U251 CNS was above 100 µM throughout. The TGI in the assay on A498 renal, with CAKI-1 renal, in the assay with HS 578T breast, with HT29 colon, in the assay on K-562 leukemia and with MDA-MB-435 was above 100 µM throughout. For the same compound, the TGI in the assay with NCI-H522 lung, in the assay on OVCAR-8 ovarian, with SF-268 CNS and in the assay with U251 CNS was above 100 µM throughout.
`O=C(Nc1n[nH]c2nc(-c3ccco3)ccc12)C1CC1`: the GI50 in the assay with A498 renal, in the assay on CAKI-1 renal, in the assay on HS 578T breast, in the assay with HT29 colon, with K-562 leukemia and in the assay on MDA-MB-435 was above 25 µM in each case. In addition, the GI50 in the assay with NCI-H522 lung, in the assay with OVCAR-8 ovarian, in the assay on SF-268 CNS and in the assay with U251 CNS was above 25 µM throughout. Also, the TGI with A498 renal, in the assay on CAKI-1 renal, with HS 578T breast, in the assay with HT29 colon, in the assay with K-562 leukemia and in the assay on MDA-MB-435 was above 25 µM in each case. Besides, the TGI in the assay with NCI-H522 lung, with OVCAR-8 ovarian, with SF-268 CNS and in the assay with U251 CNS was above 25 µM each time.
For the compound `COc1ccc(-c2cc(=O)c3c(OC)c(OC)c(OC)c(OC)c3o2)cc1OC`, the TGI in the assay with A498 renal was above 100 µM; in the assay with CAKI-1 renal, above 100 µM; with HS 578T breast it was 95.3 µM; in the assay on HT29 colon it was above 100 µM; in the assay with K-562 leukemia it was above 100 µM; with MDA-MB-435, above 100 µM. Also, the TGI in the assay on NCI-H522 lung, with OVCAR-8 ovarian, with SF-268 CNS and in the assay with U251 CNS was above 100 µM in each case.
Consider `Nc1ncnc2c1nc(-c1ccccc1)n2C1OC(CO)C(O)C1O` (centres undefined), for which the TGI in the assay with A498 renal, with CAKI-1 renal, in the assay with HS 578T breast, in the assay with HT29 colon, in the assay with K-562 leukemia and in the assay with MDA-MB-435 was above 100 µM each time. Besides, the TGI in the assay on NCI-H522 lung, in the assay on OVCAR-8 ovarian, in the assay with SF-268 CNS and with U251 CNS was above 100 µM each time.
As for `CCOC(=O)c1ccc(N(CCOS(C)(=O)=O)CCOS(C)(=O)=O)cc1C`, the GI50 in the assay on A498 renal was 24.1 µM; in the assay on CAKI-1 renal, 6.32 µM; with HS 578T breast it was 64.1 µM; in the assay with HT29 colon, 26.3 µM; in the assay with K-562 leukemia, 49.7 µM; in the assay with MDA-MB-435 it was 48.5 µM. The GI50 with NCI-H522 lung was 18.8 µM; in the assay on OVCAR-8 ovarian, 44 µM; in the assay with SF-268 CNS it was 22 µM; with U251 CNS it was 26.4 µM. Also, the TGI in the assay on A498 renal was 73.3 µM; with CAKI-1 renal, 27.1 µM; in the assay with HS 578T breast, above 100 µM; in the assay with HT29 colon, above 100 µM; in the assay on K-562 leukemia, above 100 µM; in the assay on MDA-MB-435, above 100 µM. Besides, the TGI was 61.8 µM with NCI-H522 lung, above 100 µM in the assay on OVCAR-8 ovarian, 82.7 µM with SF-268 CNS and above 100 µM in the assay with U251 CNS.
Take `COc1cc(/C=C2\CN(C)C/C(=C\c3cc(OC)c(OC)c(OC)c3)C2=O)cc(OC)c1OC`: the GI50 in the assay with A498 renal is 0.447 µM; with CAKI-1 renal, 0.288 µM; in the assay with HS 578T breast, 1.01 µM; with HT29 colon, 0.214 µM; in the assay on K-562 leukemia it was 0.334 µM; in the assay with MDA-MB-435 it was 0.287 µM. Moreover, the GI50 is 0.234 µM in the assay on NCI-H522 lung, 0.312 µM in the assay with OVCAR-8 ovarian, 0.346 µM with SF-268 CNS and 0.257 µM in the assay with U251 CNS. Moreover, the TGI is 1.59 µM in the assay on A498 renal; 0.951 µM with CAKI-1 renal; above 63.5 µM with HS 578T breast; 0.505 µM in the assay on HT29 colon; above 100 µM in the assay on K-562 leukemia; 1.02 µM in the assay with MDA-MB-435. Also, the TGI in the assay on NCI-H522 lung is 0.624 µM; in the assay on OVCAR-8 ovarian, 75.7 µM; with SF-268 CNS, 1.6 µM; with U251 CNS, 0.746 µM.
For `C=C1C(=O)O[C@H]2[C@H]1CC/C(Cn1cc(Cn3ccc4ccccc43)nn1)=C\CC[C@@]1(C)O[C@@H]21`, the GI50 was 4.3 µM with A498 renal; 1.15 µM with CAKI-1 renal; 2.9 µM in the assay on HS 578T breast; 1.7 µM with HT29 colon; 1.77 µM with K-562 leukemia; 1.7 µM with MDA-MB-435. The GI50 was 1.27 µM in the assay on NCI-H522 lung, 2.73 µM in the assay on OVCAR-8 ovarian, 1.82 µM in the assay with SF-268 CNS and 3.42 µM in the assay on U251 CNS. For the same compound, the TGI in the assay on A498 renal turned out to be 16.6 µM; with CAKI-1 renal, 2.38 µM; in the assay with HS 578T breast, 14.2 µM; in the assay on HT29 colon, 3.27 µM; in the assay with K-562 leukemia, 5.65 µM; in the assay on MDA-MB-435, 3.39 µM. Besides, the TGI in the assay on NCI-H522 lung amounted to 2.69 µM; with OVCAR-8 ovarian, 8.22 µM; in the assay with SF-268 CNS, 3.63 µM; in the assay on U251 CNS, 12.1 µM.
For the compound `CN[C@]12CC3(C=CC(=O)C=C3)O[C@@]1(Cc1ccc(OC)cc1)N(C)C(=O)N2`, the GI50 is 16.2 µM in the assay with A498 renal; 2.69 µM in the assay on CAKI-1 renal; 4.62 µM with HS 578T breast; 1.63 µM in the assay with HT29 colon; 1.58 µM in the assay with K-562 leukemia; 2.57 µM in the assay on MDA-MB-435. Also, the GI50 in the assay with NCI-H522 lung is 0.371 µM; in the assay with OVCAR-8 ovarian, 2.53 µM; with SF-268 CNS it was 2.85 µM; with U251 CNS, 1.85 µM. For the same compound, the TGI is 31.6 µM in the assay on A498 renal; 10.2 µM with CAKI-1 renal; above 100 µM in the assay on HS 578T breast; 6.28 µM with HT29 colon; above 100 µM with K-562 leukemia; 8.64 µM in the assay on MDA-MB-435. In addition, the TGI in the assay on NCI-H522 lung amounted to 2.14 µM; in the assay with OVCAR-8 ovarian it was 21.3 µM; in the assay with SF-268 CNS, 9.82 µM; in the assay on U251 CNS, 3.99 µM.
In the case of `O=C1OCc2c1cc(F)cc2[N+](=O)[O-]`, the GI50 in the assay with A498 renal, with CAKI-1 renal, in the assay on HS 578T breast, in the assay on HT29 colon, with K-562 leukemia and with MDA-MB-435 was above 100 µM each time. The GI50 with NCI-H522 lung, in the assay on OVCAR-8 ovarian, in the assay with SF-268 CNS and with U251 CNS was above 100 µM throughout. The TGI with A498 renal, in the assay on CAKI-1 renal, with HS 578T breast, with HT29 colon, in the assay on K-562 leukemia and with MDA-MB-435 was above 100 µM each time. Moreover, the TGI with NCI-H522 lung, in the assay with OVCAR-8 ovarian, in the assay on SF-268 CNS and in the assay on U251 CNS was above 100 µM in each case.
As for `O=C(Nc1nccs1)c1cc2c(cc1Cl)Sc1nccn1S2(=O)=O`, the GI50 was 19.2 µM in the assay with A498 renal; 8.5 µM with CAKI-1 renal; 28.5 µM with HS 578T breast; 19.8 µM with HT29 colon; 15.9 µM in the assay on K-562 leukemia; 1.23 µM in the assay on NCI-H522 lung. For the same compound, the GI50 in the assay on OVCAR-8 ovarian is 17.2 µM; in the assay with SF-268 CNS it was 19.2 µM; in the assay with U251 CNS, 17.2 µM. In addition, the TGI in the assay on A498 renal was 34.8 µM; with CAKI-1 renal, 36.9 µM; in the assay with HS 578T breast, 91.7 µM; with HT29 colon, 46.7 µM; in the assay with K-562 leukemia, 37.1 µM; in the assay with MDA-MB-435 it was 31.3 µM. In addition, the TGI with NCI-H522 lung turned out to be 2.85 µM; with OVCAR-8 ovarian, 37.1 µM; in the assay with SF-268 CNS, 46.9 µM; in the assay with U251 CNS, 31 µM.
Take `C/C(CC(=O)NNc1ccc([N+](=O)[O-])cc1)=N\Nc1ccc([N+](=O)[O-])cc1`: the GI50 is 7.84 µM in the assay on A498 renal; 1.93 µM in the assay on CAKI-1 renal; 17.4 µM in the assay with HS 578T breast; 7.66 µM in the assay with HT29 colon; 0.622 µM with K-562 leukemia; 4.56 µM in the assay with MDA-MB-435. Besides, the GI50 in the assay with NCI-H522 lung is 0.776 µM; in the assay on OVCAR-8 ovarian it was 14.2 µM; with SF-268 CNS, 13.4 µM; with U251 CNS, 10.5 µM. Moreover, the TGI in the assay with A498 renal is 47.2 µM; in the assay on CAKI-1 renal, 32.2 µM; with HS 578T breast it was above 100 µM; with HT29 colon it was above 100 µM; in the assay with K-562 leukemia, above 100 µM; in the assay with MDA-MB-435 it was above 100 µM. The TGI with NCI-H522 lung was 7.92 µM; with OVCAR-8 ovarian, 38.1 µM; in the assay with SF-268 CNS, above 100 µM; in the assay with U251 CNS it was 33.2 µM.
For the compound `O=C1C(=O)c2ccccc2-c2ccccc21`, the GI50 was 1.8 µM with A498 renal; 1.75 µM in the assay with CAKI-1 renal; 3.14 µM in the assay on HS 578T breast; 3.4 µM in the assay with HT29 colon; 1.01 µM in the assay with K-562 leukemia; 0.198 µM in the assay with MDA-MB-435. In addition, the GI50 in the assay on NCI-H522 lung is 1.75 µM; with OVCAR-8 ovarian, 0.662 µM; with SF-268 CNS, 1.61 µM; in the assay on U251 CNS, 1.67 µM. Moreover, the TGI is 3.32 µM with A498 renal; 3.34 µM in the assay with CAKI-1 renal; 9.86 µM in the assay on HS 578T breast; above 100 µM in the assay on HT29 colon; 4.02 µM in the assay with K-562 leukemia; 0.416 µM in the assay with MDA-MB-435. In addition, the TGI in the assay with NCI-H522 lung stood at 4.12 µM; in the assay with OVCAR-8 ovarian, 2.15 µM; with SF-268 CNS it was 3.15 µM; in the assay with U251 CNS it was 3.53 µM.
For `Cc1cc(C)c(O)c(Cc2cccc(Cc3cc(C)cc(C)c3O)c2O)c1`, the TGI in the assay with A498 renal, in the assay on CAKI-1 renal, with HS 578T breast, in the assay with HT29 colon, in the assay on K-562 leukemia and in the assay on MDA-MB-435 was above 100 µM each time. The TGI in the assay on NCI-H522 lung, in the assay with OVCAR-8 ovarian, in the assay on SF-268 CNS and with U251 CNS was above 100 µM throughout.

Values taken from PubChem BioAssay (NCI).
